Several values for one entry are separate records, joined by “and”; a condition that tells them apart may be missing. Equal entries are not always repeated. *1 amine or outer side, *2 acyl side, *3 side chain or, on linkers, in order; H or OH if unused. Where a SMILES comes first, the peptide text is derived from it. Bridges are numbered along the chain shown (N, C = ends). [ ]: non-standard residue; d: D form. ξ: configuration not given here. Phe(4-CH2NHiPr) = CC(C)NCc1ccc(C[C@H](N)C(=O)O)cc1; X2 = CC(C)NCc1ccc(C[C@@H](N[*:1])C(=O)[*:2])cc1; d1Nal = N[C@H](Cc1cccc2ccccc12)C(=O)O; Thr(3ξ) = CC(O)[C@H](N)C(=O)O; ξF = NC(Cc1ccccc1)C(=O)O; ξK = NCCCCC(N)C(=O)O; ξT = CC(O)C(N)C(=O)O; Ahp = NCCCCCCC(=O)O
What was measured:
[1] = molecular target: Somatostatin receptor type 3 (Rattus norvegicus, UniProt P30936)
[2] = molecular target: T1, Somatostatin receptor type 5 (Rattus norvegicus, UniProt P30938)
T1 sequence (P30938 whole entry): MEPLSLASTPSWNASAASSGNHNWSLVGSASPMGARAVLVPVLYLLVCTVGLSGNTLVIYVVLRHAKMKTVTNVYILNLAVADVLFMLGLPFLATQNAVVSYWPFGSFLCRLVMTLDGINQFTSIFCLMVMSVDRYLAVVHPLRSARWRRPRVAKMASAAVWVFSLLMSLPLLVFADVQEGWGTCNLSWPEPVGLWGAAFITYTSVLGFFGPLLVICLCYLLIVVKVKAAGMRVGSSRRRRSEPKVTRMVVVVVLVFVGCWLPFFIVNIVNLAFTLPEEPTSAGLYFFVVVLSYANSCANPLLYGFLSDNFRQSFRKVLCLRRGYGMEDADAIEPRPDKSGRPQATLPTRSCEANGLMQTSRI

[3] = molecular target: Somatostatin receptor type 1 (Homo sapiens, UniProt P30872)
[4] = molecular target: Somatostatin receptor type 2 (Rattus norvegicus, UniProt P30680)
[5] = molecular target: Somatostatin receptor type 5 (Homo sapiens, UniProt P35346)
[6] = molecular target: Somatostatin receptor type 2 (Mus musculus, UniProt P30875)
[7] = molecular target: Somatostatin receptor type 4 (Homo sapiens, UniProt P31391)
[8] = molecular target: Somatostatin receptor type 2 (Homo sapiens, UniProt P30874)
Somatostatin receptor type 2 (Homo sapiens, UniProt P30874), sequence (P30874 whole entry): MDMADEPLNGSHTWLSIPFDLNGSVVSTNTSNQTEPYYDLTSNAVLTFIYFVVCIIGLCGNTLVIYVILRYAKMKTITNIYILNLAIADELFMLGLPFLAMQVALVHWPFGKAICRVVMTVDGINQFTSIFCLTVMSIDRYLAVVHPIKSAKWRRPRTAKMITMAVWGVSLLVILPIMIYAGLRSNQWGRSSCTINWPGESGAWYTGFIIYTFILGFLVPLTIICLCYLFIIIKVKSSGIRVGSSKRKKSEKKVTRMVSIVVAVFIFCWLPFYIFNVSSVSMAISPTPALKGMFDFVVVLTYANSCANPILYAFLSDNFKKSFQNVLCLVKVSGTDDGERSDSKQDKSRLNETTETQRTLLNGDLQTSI

Somatostatin receptor type 2 (Mus musculus, UniProt P30875), sequence (P30875 whole entry): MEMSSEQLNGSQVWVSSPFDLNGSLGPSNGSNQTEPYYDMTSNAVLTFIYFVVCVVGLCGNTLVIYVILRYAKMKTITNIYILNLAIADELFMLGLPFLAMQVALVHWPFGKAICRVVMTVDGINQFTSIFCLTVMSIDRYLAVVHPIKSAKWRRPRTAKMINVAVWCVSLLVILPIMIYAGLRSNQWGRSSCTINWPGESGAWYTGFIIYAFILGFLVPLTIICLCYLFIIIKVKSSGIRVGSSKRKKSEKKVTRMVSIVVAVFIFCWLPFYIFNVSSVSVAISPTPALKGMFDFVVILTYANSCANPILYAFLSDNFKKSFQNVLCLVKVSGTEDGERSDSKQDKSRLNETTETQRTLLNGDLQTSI
Somatostatin receptor type 5 (Homo sapiens, UniProt P35346), sequence (P35346 whole entry): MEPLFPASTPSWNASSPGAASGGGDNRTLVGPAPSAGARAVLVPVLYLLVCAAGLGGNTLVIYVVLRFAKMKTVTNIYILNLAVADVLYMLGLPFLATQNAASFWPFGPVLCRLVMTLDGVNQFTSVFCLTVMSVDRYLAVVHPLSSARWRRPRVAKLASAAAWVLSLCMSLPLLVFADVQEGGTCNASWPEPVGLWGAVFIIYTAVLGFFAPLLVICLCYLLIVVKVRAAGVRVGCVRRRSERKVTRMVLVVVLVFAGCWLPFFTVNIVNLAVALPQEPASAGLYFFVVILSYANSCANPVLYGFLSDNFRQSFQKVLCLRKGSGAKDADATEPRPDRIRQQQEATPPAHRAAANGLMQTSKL
Somatostatin receptor type 3, sequence (P30936 whole entry): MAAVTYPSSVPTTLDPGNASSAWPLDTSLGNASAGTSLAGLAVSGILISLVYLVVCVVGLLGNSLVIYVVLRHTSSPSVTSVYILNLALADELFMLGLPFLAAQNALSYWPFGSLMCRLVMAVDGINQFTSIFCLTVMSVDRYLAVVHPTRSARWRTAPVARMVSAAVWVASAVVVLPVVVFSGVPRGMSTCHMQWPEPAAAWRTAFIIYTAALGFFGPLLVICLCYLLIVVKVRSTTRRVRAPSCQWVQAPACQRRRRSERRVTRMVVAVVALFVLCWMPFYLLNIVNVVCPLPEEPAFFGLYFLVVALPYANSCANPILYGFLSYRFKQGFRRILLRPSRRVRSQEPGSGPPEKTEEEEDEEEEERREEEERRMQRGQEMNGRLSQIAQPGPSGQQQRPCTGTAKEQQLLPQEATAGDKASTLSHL
Somatostatin receptor type 1, sequence (P30872 whole entry): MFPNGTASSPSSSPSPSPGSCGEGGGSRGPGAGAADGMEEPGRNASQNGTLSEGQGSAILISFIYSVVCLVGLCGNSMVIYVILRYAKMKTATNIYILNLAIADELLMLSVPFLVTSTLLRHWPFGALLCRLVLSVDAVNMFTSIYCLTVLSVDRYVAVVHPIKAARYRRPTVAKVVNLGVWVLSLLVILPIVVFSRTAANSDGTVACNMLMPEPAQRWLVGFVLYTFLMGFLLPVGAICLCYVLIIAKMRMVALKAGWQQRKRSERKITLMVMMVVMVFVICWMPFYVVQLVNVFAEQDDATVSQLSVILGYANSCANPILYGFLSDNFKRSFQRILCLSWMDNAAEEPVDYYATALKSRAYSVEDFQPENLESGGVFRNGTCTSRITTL
Somatostatin receptor type 4, sequence (P31391 whole entry): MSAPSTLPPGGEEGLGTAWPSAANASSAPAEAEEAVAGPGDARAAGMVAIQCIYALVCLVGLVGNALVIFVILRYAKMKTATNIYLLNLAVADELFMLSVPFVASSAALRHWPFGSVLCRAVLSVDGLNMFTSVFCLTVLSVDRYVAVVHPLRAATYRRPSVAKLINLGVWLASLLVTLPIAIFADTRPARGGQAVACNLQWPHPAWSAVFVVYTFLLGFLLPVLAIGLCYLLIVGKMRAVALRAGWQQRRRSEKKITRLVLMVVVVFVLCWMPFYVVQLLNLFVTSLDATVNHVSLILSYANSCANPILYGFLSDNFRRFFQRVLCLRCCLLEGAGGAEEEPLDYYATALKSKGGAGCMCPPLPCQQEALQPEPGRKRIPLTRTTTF
Somatostatin receptor type 2 (Rattus norvegicus, UniProt P30680), sequence (P30680 whole entry): as the sequence (P30875 whole entry) above, with M3L, S4T, L8F, V15I, S16P, C168G, T335A counted along it

Compound	Ki [1] [nM]	Ki [2] [nM]	Ki [3]	Ki [4] [nM]	Ki [5] [nM]	Ki [6]	Ki [7] [nM]	Ki [8] [nM]
C[C@@H](O)[C@@H]1NC(=O)[C@H](CCCCN)NC(=O)[C@@H](Cc2c[nH]c3ccccc23)NC(=O)[C@H](Cc2ccccc2)NC(=O)[C@@H](NC(=O)[C@H](N)Cc2ccccc2)CSSC[C@@H](C(=O)N[C@H](CO)[C@@H](C)O)NC1=O	14	–	–	–	–	–	–	–
CC(O)[C@H](CO)NC(=O)[C@@H]1CSSCC(NC(=O)C(N)Cc2ccccc2)C(=O)N[C@H](Cc2ccccc2)C(=O)N[C@H](Cc2c[nH]c3ccccc23)C(=O)N[C@H](CCCCN)C(=O)N[C@H](C(C)O)C(=O)N1 (some centres not stated)	–	17	–	–	–	–	–	–
C[C@@H](O)[C@@H]1NC(=O)[C@H](CCCCN)NC(=O)[C@@H](Cc2c[nH]c3ccccc23)NC(=O)[C@H](Cc2ccccc2)NC(=O)[C@H](Cc2ccccc2)NC(=O)[C@H](N)CSSC[C@H](C(N)=O)NC(=O)[C@H](Cc2ccccc2)NC1=O	4.1	–	582 nM	101	2.18	1.49 nM and 11 nM	–	–
CC(C)[C@@H]1NC(=O)[C@H](CCCCN)NC(=O)[C@@H](Cc2c[nH]c3ccccc23)NC(=O)[C@H](Cc2ccc(O)cc2)NC(=O)[C@@H](NC(=O)[C@H](N)Cc2ccc3ccccc3c2)CSSC[C@@H](C(=O)N[C@H](C(N)=O)[C@@H](C)O)NC1=O [3-(2-Naphtyl)-D-Ala-L-Cys(1)-L-Tyr-D-Trp-L-Lys-L-Val-L-Cys(1)-L-Thr-NH2]	115	23	–	1.47	–	–	–	–
CC(C)C1NC(=O)C(CCCCN)NC(=O)C(Cc2c[nH]c3ccccc23)NC(=O)C(Cc2ccc(O)cc2)NC(=O)C(NC(=O)C(N)Cc2ccccc2)CSSCC(C(=O)NC(Cc2c[nH]c3ccccc23)C(N)=O)NC1=O (configuration not stated) [CAS_71306] (H-FCYWKVCW-NH2; disulfide 2-7; configuration not given here)	–	6.8	–	–	–	–	–	–
CC(C)[C@@H]1NC(=O)[C@H](CCCCN)NC(=O)[C@@H](Cc2c[nH]c3ccccc23)NC(=O)[C@H](Cc2ccc(O)cc2)NC(=O)[C@@H](NC(=O)[C@H](N)Cc2ccccc2)CSSC[C@@H](C(=O)N[C@@H](Cc2c[nH]c3ccccc23)C(N)=O)NC1=O [CAS_71306] (H-[dF]CY[dW]KVCW-NH2; disulfide 2-7)	87	–	481 nM	0.85	–	–	351	–
C[C@@H](O)[C@H](NC(=O)[C@H](Cc1ccccc1)NC(=O)[C@@H](NC(=O)[C@H](CCCCN)NC(=O)[C@@H](Cc1c[nH]c2ccccc12)NC(=O)[C@H](Cc1ccccc1)NC(=O)[C@H](Cc1ccccc1)NC(=O)[C@H](N)Cc1ccccc1)[C@@H](C)O)C(N)=O [CAS_133073-82-2] (H-[dF]FF[dW]KTFT-NH2)	3.5	2.4	–	69	–	11.9 nM and 5.58 nM	–	–
CC(C)C1NC(=O)C(CCCCN)NC(=O)C(Cc2c[nH]c3ccccc23)NC(=O)C(Cc2ccc(O)cc2)NC(=O)C(C)N(C)C(=O)C(Cc2ccccc2)NC1=O (configuration not stated) [CAS_3086456]	–	72	–	–	–	–	–	–
CC[C@@H]1NC(=O)[C@H](CCCCN)NC(=O)[C@@H](Cc2c[nH]c3ccccc23)NC(=O)[C@H](Cc2ccc(O)cc2)NC(=O)[C@@H](NC(=O)[C@H](N)Cc2ccccc2)CSSC[C@@H](C(=O)N[C@H](C(N)=O)[C@@H](C)O)NC1=O [D-Phe-L-Cys(1)-L-Tyr-D-Trp-L-Lys-L-Abu-L-Cys(1)-L-Thr-NH2]	92	14	–	0.57	–	–	–	–
CSCC[C@H](NC(=O)[C@H](C)NC(=O)[C@@H]1CCCN1C(=O)[C@H](CC(N)=O)NC(=O)[C@H](CO)NC(=O)[C@H](CC(N)=O)NC(=O)[C@H](C)NC(=O)[C@@H](N)CO)C(=O)N[C@@H](C)C(=O)N1CCC[C@H]1C(=O)N[C@@H](CCCNC(=N)N)C(=O)N[C@@H](CCC(=O)O)C(=O)N[C@@H](CCCNC(=N)N)C(=O)N[C@@H](CCCCN)C(=O)N[C@@H](C)C(=O)NCC(=O)N[C@H]1CSSC[C@@H](C(=O)O)NC(=O)[C@H](CO)NC(=O)[C@H]([C@@H](C)O)NC(=O)[C@H](Cc2ccccc2)NC(=O)[C@H]([C@@H](C)O)NC(=O)[C@H](CCCCN)NC(=O)[C@H](Cc2c[nH]c3ccccc23)NC(=O)[C@H](Cc2ccccc2)NC(=O)[C@H](Cc2ccccc2)NC(=O)[C@H](CC(N)=O)NC(=O)[C@H](CCCCN)NC1=O [L-Ser-L-Ala-L-Asn-L-Ser-L-Asn-L-Pro-L-Ala-L-Met-L-Ala-L-Pro-L-Arg-L-Glu-L-Arg-L-Lys-L-Ala-Gly-L-Cys(1)-L-Lys-L-Asn-L-Phe-L-Phe-L-Trp-L-Lys-L-Thr-L-Phe-L-Thr-L-Ser-L-Cys(1)-OH]	0.81	–	–	–	–	–	–	–

Second part, the molecule after the results:

Ki [1] [nM]	Ki [2] [nM]	Ki [3]	Ki [4] [nM]	Ki [5] [nM]	Ki [6]	Ki [7] [nM]	Ki [8] [nM]	Compound
–	3.4	–	–	–	–	–	–	CC(O)[C@H]1NC(=O)[C@H](CCCCN)NC(=O)[C@H](Cc2c[nH]c3ccccc23)NC(=O)[C@H](Cc2ccccc2)NC(=O)[C@@H](Cc2ccccc2)NC(=O)[C@H](N)CSSC[C@H](C(N)=O)NC(=O)[C@H](Cc2ccccc2)NC1=O (some centres not stated)
–	536	–	–	–	–	–	–	CC(C)[C@H](NC(=O)[C@H](CCCCN)NC(=O)[C@@H](Cc1c[nH]c2ccccc12)NC(=O)[C@H](Cc1ccc(O)cc1)NC(=O)[C@H](Cc1ccccc1)NC(=O)[C@@H](N)Cc1ccccc1)C(=O)N[C@@H](Cc1ccccc1)C(=O)N[C@H](Cc1cccc2ccccc12)C(N)=O [BIM 23056] (H-FFY[dW]KVF[d1Nal]-NH2)
272	–	692 nM	3400	12	132 nM	174	–	CC(C)[C@H](NC(=O)[C@H](CCCCN)NC(=O)[C@@H](Cc1c[nH]c2ccccc12)NC(=O)[C@H](Cc1ccc(O)cc1)NC(=O)[C@H](Cc1ccccc1)NC(=O)[C@H](N)Cc1ccccc1)C(=O)N[C@@H](Cc1ccccc1)C(=O)N[C@H](Cc1cccc2ccccc12)C(N)=O [BIM 23056] (H-[dF]FY[dW]KVF[d1Nal]-NH2)
5.7	0.65	86.8 nM	57	0.34	–	3.36	–	CC(O)[C@@H](NC(=O)[C@H](CCCCN)NC(=O)[C@@H](Cc1c[nH]c2ccccc12)NC(=O)[C@H](Cc1ccc(O)cc1)NC(=O)C(Cc1ccccc1)NC(=O)C(N)CS)C(=O)NC(Cc1ccccc1)C(=O)NC(CS)C(N)=O (some centres not stated) [BIM 23295]
11.2	9.88	151 nM	45	0.27	–	55.3	–	CC(O)[C@@H](NC(=O)[C@H](CCCCN)NC(=O)[C@@H](Cc1c[nH]c2ccccc12)NC(=O)[C@H](Cc1ccccc1)NC(=O)C(Cc1ccccc1)NC(=O)C(N)CS)C(=O)NC(Cc1ccccc1)C(=O)NC(CS)C(N)=O (some centres not stated) [BIM 23313]
45	–	–	0.48	15.5	–	–	–	CC(C)[C@@H]1NC(=O)[C@H](CCCCN)NC(=O)[C@@H](Cc2c[nH]c3ccccc23)NC(=O)[C@H](Cc2ccc(O)cc2)NC(=O)[C@H](C)N(C)C(=O)[C@H](Cc2ccccc2)NC1=O [CAS_3086456]
–	–	1.8 nM and 4.9 nM	–	–	1000 nM	874	1000	CC(C)NCc1ccc(C[C@@H]2NC(=O)[C@@H](Cc3c[nH]c4ccccc34)NC(=O)[C@H](Cc3ccccc3)NC(=O)[C@H](Cc3ccccc3)NC(=O)[C@H](CCCCN)NC(=O)[C@@H](N)CSSC[C@@H](C(=O)O)NC(=O)[C@H](CO)NC(=O)[C@H]([C@@H](C)O)NC(=O)[C@H](Cc3ccccc3)NC(=O)[C@H]([C@@H](C)O)NC2=O)cc1 [CH-275] (H-CKFF[dW][Phe(4-CH2NHiPr)]TFTSC-OH; disulfide 1-11)
–	632	–	–	–	–	–	–	CC(C)NCc1ccc(C[C@H]2NC(=O)[C@H](Cc3c[nH]c4ccccc34)NC(=O)C(Cc3ccccc3)NC(=O)C(Cc3ccccc3)NC(=O)C(CCCCN)NC(=O)[C@H](N)CSSC[C@H](C(=O)O)NC(=O)[C@@H](CO)NC(=O)[C@H](C(C)O)NC(=O)[C@@H](Cc3ccccc3)NC(=O)C(C(C)O)NC2=O)cc1 (some centres not stated) [CH-275] (H-[dC][ξK][ξF][ξF]W[X2][ξT][dF][Thr(3ξ)][dS][dC]-OH; disulfide 1-11)
33	51	–	12	0.76	–	467	–	C[C@@H](O)[C@@H]1NC(=O)[C@H](CCCCN)NC(=O)[C@@H](Cc2c[nH]c3ccccc23)NC(=O)[C@H](Cc2c[nH]c3ccccc23)NC(=O)[C@H](Cc2ccccc2)NC(=O)CCCCCCNC(=O)[C@H](Cc2ccccc2)NC1=O [L-362855] (cyclo([Ahp]FW[dW]KTF))

Reference: BindingDB's records for doi:10.1007/bfb0000613 (German Institute of Human Nutrition, 1998)
